In publication PMC12785453, “Oral Fluid Concentrations and Pharmacological Effects of Clephedrone and Methylone in Humans” (International Journal of Molecular Sciences, 2025):
Where two headings read alike, the source gives them in different places.

How the values were obtained:
[1] = Oral fluid concentrations of clephedrone (GC-MS/MS); assay type: in vivo, humans; details: both sexes, human, 100 or 150 mg oral
Experimental: This study consisted of one experimental session in which participants (N = 8; 6 women, 2 men) selected their oral dose of clephedrone based on their drug use experience and preferences. According to their dose selection, 3 women and 1 man ingested 100 mg of clephedrone, while the remaining 3 women and 1 man opted for a higher dose of 150 mg. […] Participants were recruited by word of mouth by the harm reduction organization Energy Control in Barcelona (Associació Benestar i Desenvolupament, ABD).
In both studies, oral fluid samples for the quantification of clephedrone and methylone concentration were collected using Salivette standard tubes. For clephedrone, oral fluid samples were collected at baseline, 0.50, 1, 1.5, 2, 3, 4, and 5 h, whereas for methylone, they were collected at baseline, 0.25, 0.50, 0.75, 1, 1.5, 2, 3, 4, 6, 8, and 10 h. After collection, all samples were centrifuged and stored frozen at −20 °C until analysis. Clephedrone oral fluid concentrations were determined using a previously validated gas chromatography coupled to mass spectrometry systems (GC-MS/MS). Methylone was quantified via liquid chromatography–tandem mass spectrometry (LC–MS/MS).
For oral fluid concentrations of clephedrone and methylone, only a descriptive analysis was performed to obtain the main pharmacokinetics data, including the maximum concentration (Cmax), the time required to reach maximum concentrations (Tmax), and AUC up to 5 h (AUC0–5h) for clephedrone and up to 6 h (AUC0–6h) for methylone. These parameters were calculated using the Pharmacokinetic Functions for Microsoft Excel (Joel Usansky, Atul Desai, and Diane Tang-Liu, Department of Pharmacokinetics and Drug Metabolism, Allergan, Irvine, CA, USA). Oral cortisol concentrations after clephedrone were analyzed using Dunnett’s multiple comparison test (each time point with baseline).

[2] = tested on: MDMA-like discriminative stimulus effects; design: method as in PMID 30986635; details: cited from earlier work
[3] = tested on: healthy male participants; experiment: Physiological effects (SBP, DBP, HR, T), controlled methylone pilot clinical trial; assay type: in vivo, humans
Experimental: Methylone pharmacology was evaluated in a study designed as a randomized, double-blind, placebo-controlled, crossover clinical trial. Four pilot studies were conducted administering methylone at oral doses of 50 (n = 3), 100 (n = 6), 150 (n = 5), and 200 mg (n = 7). Participants attended 3 experimental sessions separated by a one-week wash-out period and received two doses of methylone (one dose per experimental session) compared to placebo, except in the last pilot study in which participants received one dose of methylone, compared to MDMA and placebo. However, in this manuscript, only the results corresponding to the highest methylone doses (n = 12; 150 and 200 mg; mean dose = 179.2 mg) are presented, to enable comparison with clephedrone self-administration. Participants were recruited by word of mouth in the volunteer database of the clinical pharmacology unit.
Participants of the naturalistic clephedrone study were summoned at 15:00 h at the private club where sessions were carried out. The club remained closed to the public until the end of the session, approximately at 21:00 h. As a naturalistic study, participants were left free to talk, read, play games, or listen to music in the time between study evaluations. To avoid possible influences between participants, they were asked to refrain from talking about the effects of the self-administered substance. The experimental sessions of the controlled pilot trial were carried out at the Clinical Research Unit (UPIC) of the Germans Trias i Pujol hospital, where participants were summoned at 7:45 a.m. after fasting overnight and remained there for approximately 11 h.
Methylone hydrochloride of high purity in powder form was acquired from LGC Standards (Teddington, UK) for the controlled study. The Pharmacy Department of the Hospital Universitari Germans Trias i Pujol was responsible for manufacturing, storing, and dispensing identical and opaque soft gelatin capsules containing 50 mg of methylone or a placebo (maltodextrin). Treatment consisted of 5 capsules that combined methylone and/or a placebo to reach the target dose. Details can be found in the previous article.
In the controlled methylone study, vital signs monitors (Philips Sure Signs VM4 monitors, Philips, Amsterdam, The Netherlands) were used to measure SBP, DBP, HR, and oral temperature at baseline (−30 and −15 min) and 0.25, 0.50, 0.75, 1.5, 2, 3, 4, 6, 8, 10, and 24 h after administration. For these evaluations, participants rested in hospital beds in a position of back elevation. Furthermore, electrocardiograms were constantly monitored throughout the sessions for safety reasons.
For statistical analysis, values of physiological (SBP, DBP, HR, and T) and subjective effects (VAS, ARCI, and VESSPA-SSE) were baseline–adjusted. Maximum effects (Emax) and the time needed to reach maximum effects (Tmax) were determined, and the area under the curve up to 5 h (AUC0–5h) for clephedrone and up to 6 h (AUC0–6h) for methylone was calculated using the trapezoidal rule. Emax and AUC values are presented as mean ± standard deviation, whereas Tmax is presented in median (range).
To find possible significant changes through the time course compared to baseline, a Dunnett multiple comparison test was carried out to compare each time point with baseline in both drug conditions. For clephedrone the comparisons were 0–0.5 h, 0–1 h, 0–1.5 h, 0–2 h, 0–3 h, 0–4 h and 0–5 h, and for methylone this analysis included 0–0.25 h, 0–0.5 h, 0–0.75 h, 0–1 h, 0–1.5 h, 0–2 h, 0–3 h, 0–4 h and 0–6 h. Given their different study designs, no comparative analysis between the time courses of both synthetic cathinones was conducted.

[4] = 150 or 200 mg oral, n=12, listed as methylone
[5] = AUC0–6h, 150 or 200 mg oral, n=12

SMILES	Cmax ([1]; n=8) [ng/mL]	Tmax ([1]; n=8) [h]	AUC(0-t) ([1]; n=8, read-out: Oral fluid AUC0–5 h) [ng·h/mL]	Substitution for MDMA in drug discrimination ([2]; rodents)	Onset of cardiovascular effects after administration ([3]; 150 or 200 mg oral) [h]	SBP effects returned to baseline ([3]; 150 or 200 mg oral) [h]	DBP Emax ([3]; 150 or 200 mg oral, n=12) [mmHg]	HR Emax ([3]; 150 or 200 mg oral, n=12) [bpm]	SBP Emax ([3]; 150 or 200 mg oral, n=12) [mmHg]	DBP Emax [3, 4] [mmHg]	HR Emax [3, 4] [bpm]	SBP Emax [3, 4] [mmHg]	HR AUC0-5/6 h [3, 5] [bpm·h]	SBP AUC0-5/6 h [3, 5] [mmHg·h]	T AUC0-5/6 h ([3]; AUC0–6h, oral temperature, 150 or 200 mg oral, n=12) [°C·h]	Tolerability, serious adverse events ([3]; all administered doses (150 or 200 mg oral))	T Emax ([3]; oral temperature, 150 or 200 mg oral, n=12) [°C]	Substitution for MDMA in drug discrimination ([2]; rats) [%]
CNC(C)C(=O)c1ccc(Cl)cc1 (stereo not drawn) [Clephedrone, 4-chloromethcathinone]	6410 ± 3490	3	10700	fully substituted for MDMA	–	–	–	–	–	–	–	–	–	–	–	–	–	–
CNC(C)C(=O)c1ccc2c(c1)OCO2 (stereo not drawn) [Methylone, 3,4-methylenedioxy-N-methylcathinone]	–	–	–	–	0.5	3	3.75 ± 11.52	28.75 ± 16.09	27.04 ± 10.72	3.75	28.75	27.04	97.07 ± 69.24	38.70 ± 26.84	0.88 ± 1.34	well tolerated	0.23 ± 0.34	> 80
